Results: patent US9981945B2, “Pyrimidine derivatives as CFTR modulators” (NuBridge BioSciences, priority 2015, dated 2018)
Where a name gives a salt, the structure may show the parent alone.

Target: T1, ΔF508 mutant CFTR (Homo sapiens, UniProt P13569, DEL508-508)
T1 construct: expressed in transfected cells; host or cells: Fischer rat thyroid (FRT) cells
Experiment: Fluorescence (YFP halide quenching) assay of ΔF508 mutant CFTR activity in FRT cells
Assay type: cell-based
Parameters: key: fold of mean activity with forskolin alone (I− quenching rate)
Details: FRT cells expressing ΔF508-CFTR and YFP-H148Q/I152L, rescued at 27° C. 20-24 h; forskolin 20 μM + test compound 20 μM for 20 min; I− influx rate normalized to forskolin alone
From the text: The ΔF508 mutant CFTR activities of the CFTR modulators are detected using the Fluorescence Assay developed by Pedemonte (Pedemonte N., et al., Antihypertensive 1,4-dihydropyridines as correctors of the cystic fibrosis transmembrane conductance regulator channel gating defect caused by cystic fibrosis mutations, Mol. Pharmacol., 2005, 68, 1736-1746).
Fischer rat thyroid (FRT) cells, stably transfected with ΔF508 were retransfected with the YFP-H148Q/I152L fluorescent protein. The cells were plated (100,000 cells/well) on black 96-well microplates with clear plastic bottom (Corning Life Sciences, Acton, Mass.).
The 96-well microplates containing FRT cells expressing F508-CFTR and the halide-sensitive YFP were incubated at 27° C. for 20 to 24 h to allow rescue of the mutant protein to the plasma membrane. After incubation, cells were washed with PBS (containing 137 mM NaCl, 2.7 mM KCl, 8.1 mM Na2HPO4, 1.5 mM KH2PO4, 1 mM CaCl2, and 0.5 mM MgCl2) and stimulated for 20 min with forskolin (20 μM) and test compounds (20 μM) in a final volume of 60 μl. Microplates were then transferred to a microplate reader for CFTR activity determination. Each assay consisted of a continuous 14-s fluorescence reading (5 points per second) with 2 s before and 12 s after injection of 165 μl of an iodide-containing solution (PBS with Cl^− replaced by I^−). Final iodide concentration in the wells was 100 mM. […] To determine I^− influx rate, the final 11 s of the data for each well were fitted with an exponential function to extrapolate initial slope. CFTR activity was determined by measuring the rate of fluorescence quenching induced by extracellular addition of I^−. Data are normalized to the mean activity measured in the presence of forskolin alone.

T1 sequence (P13569 with tags, fused parts or gaps DEL508-508): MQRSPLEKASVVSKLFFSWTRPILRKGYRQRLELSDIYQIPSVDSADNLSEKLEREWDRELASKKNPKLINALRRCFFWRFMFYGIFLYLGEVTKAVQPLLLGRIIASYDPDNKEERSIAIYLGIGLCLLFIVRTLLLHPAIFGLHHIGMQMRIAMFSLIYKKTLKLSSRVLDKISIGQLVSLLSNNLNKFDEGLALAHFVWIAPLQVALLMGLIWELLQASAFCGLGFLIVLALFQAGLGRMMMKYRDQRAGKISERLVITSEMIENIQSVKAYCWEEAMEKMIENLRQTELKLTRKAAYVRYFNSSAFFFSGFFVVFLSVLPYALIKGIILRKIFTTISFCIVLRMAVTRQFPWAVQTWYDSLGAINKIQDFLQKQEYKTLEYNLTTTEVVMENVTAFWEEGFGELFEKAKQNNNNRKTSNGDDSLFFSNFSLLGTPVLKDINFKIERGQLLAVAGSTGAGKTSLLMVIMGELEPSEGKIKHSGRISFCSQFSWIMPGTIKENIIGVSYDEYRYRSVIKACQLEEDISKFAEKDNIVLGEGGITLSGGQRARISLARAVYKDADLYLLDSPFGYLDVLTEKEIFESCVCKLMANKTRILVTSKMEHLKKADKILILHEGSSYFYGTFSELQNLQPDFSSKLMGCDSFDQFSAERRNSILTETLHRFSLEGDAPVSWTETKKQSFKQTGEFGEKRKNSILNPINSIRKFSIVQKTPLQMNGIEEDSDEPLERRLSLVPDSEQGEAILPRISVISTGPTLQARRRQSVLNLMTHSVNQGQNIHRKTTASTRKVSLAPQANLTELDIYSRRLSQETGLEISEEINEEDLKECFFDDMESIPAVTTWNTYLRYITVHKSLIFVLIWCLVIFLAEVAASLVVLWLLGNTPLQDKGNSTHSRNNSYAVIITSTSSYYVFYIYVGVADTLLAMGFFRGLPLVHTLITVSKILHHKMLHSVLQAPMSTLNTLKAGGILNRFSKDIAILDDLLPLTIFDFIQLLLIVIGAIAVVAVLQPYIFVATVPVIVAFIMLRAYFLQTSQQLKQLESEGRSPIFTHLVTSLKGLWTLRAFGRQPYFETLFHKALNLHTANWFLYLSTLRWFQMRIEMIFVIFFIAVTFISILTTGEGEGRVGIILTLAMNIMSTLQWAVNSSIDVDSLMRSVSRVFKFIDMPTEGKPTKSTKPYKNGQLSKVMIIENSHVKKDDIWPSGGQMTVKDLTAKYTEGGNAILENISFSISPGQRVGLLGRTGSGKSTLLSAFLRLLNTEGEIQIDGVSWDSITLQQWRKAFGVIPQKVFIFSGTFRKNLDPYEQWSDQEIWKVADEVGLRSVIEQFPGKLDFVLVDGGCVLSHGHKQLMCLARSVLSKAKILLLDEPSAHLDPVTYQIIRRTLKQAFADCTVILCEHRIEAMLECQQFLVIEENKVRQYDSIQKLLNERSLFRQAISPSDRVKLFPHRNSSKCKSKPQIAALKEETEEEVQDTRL

| CFTR Activity | Structure (SMILES) |
| --- | --- |
| 1.2 | Cl.O=C(Nc1cncnc1OCC1CCNCC1)c1ccc(F)c(-c2c(F)cccc2F)n1 [Example 1, 6-(2,6-difluorophenyl)-5-fluoro-N-(4-(piperidin-4-ylmethoxy)pyrimidin-5-yl)picolinamide hydrochloride] |
| 0.5 | Cl.O=C(Nc1cncnc1OCC1CNC1)c1ccc(F)c(-c2c(F)cccc2F)n1 [Example 2, N-(4-(azetidin-3-ylmethoxy)pyrimidin-5-yl)-6-(2,6-difluorophenyl)-5-fluoropicolinamide hydrochloride] |
| 1.3 | Cl.O=C(Nc1cncnc1OC1CCNCC1)c1ccc(F)c(-c2c(F)cccc2F)n1 [Example 3, 6-(2,6-difluorophenyl)-5-fluoro-N-(4-(piperidin-4-yloxy)pyrimidin-5-yl)picolinamide hydrochloride] |
| 0.7 | Cl.O=C(Nc1cncnc1OC1CCNC1)c1ccc(F)c(-c2c(F)cccc2F)n1 (centres unmarked) [Example 4, 6-(2,6-difluorophenyl)-5-fluoro-N-(4-(pyrrolidin-3-yloxy)pyrimidin-5-yl)picolinamide hydrochloride] |
| 0.6 | Cl.O=C(Nc1cncnc1OC1CCCNC1)c1ccc(F)c(-c2c(F)cccc2F)n1 (centres unmarked) [Example 5, 6-(2,6-difluorophenyl)-5-fluoro-N-(4-(piperidin-3-yloxy)pyrimidin-5-yl)picolinamide hydrochloride] |
| 1.9 | Cl.O=C(Nc1cncnc1OC1CCCNCC1)c1ccc(F)c(-c2c(F)cccc2F)n1 (centres unmarked) [Example 6, N-(4-(azepan-4-yloxy)pyrimidin-5-yl)-6-(2,6-difluorophenyl)-5-fluoropicolinamide hydrochloride] |
| 0.5 | Cl.O=C(Nc1cncnc1OCC1CCCNC1)c1ccc(F)c(-c2c(F)cccc2F)n1 (centres unmarked) [Example 7, 6-(2,6-difluorophenyl)-5-fluoro-N-(4-(piperidin-3-ylmethoxy)pyrimidin-5-yl)picolinamide hydrochloride] |
| 0.6 | Cl.O=C(Nc1cncnc1OCC1CCNC1)c1ccc(F)c(-c2c(F)cccc2F)n1 (centres unmarked) [Example 8, 6-(2,6-difluorophenyl)-5-fluoro-N-(4-(pyrrolidin-3-ylmethoxy)pyrimidin-5-yl)picolinamide hydrochloride] |
| 0.4 | Cl.O=C(Nc1cncnc1OC1CNC1)c1ccc(F)c(-c2c(F)cccc2F)n1 [Example 9, N-(4-(azetidin-3-yloxy)pyrimidin-5-yl)-6-(2,6-difluorophenyl)-5-fluoropicolinamide hydrochloride] |
| 1.9 | Cl.NC1CCC(Oc2ncncc2NC(=O)c2ccc(F)c(-c3c(F)cccc3F)n2)CC1 (centres unmarked) [Example 10, N-(4-(((1r,4r)-4-aminocyclohexyl)oxy)pyrimidin-5-yl)-6-(2,6-difluorophenyl)-5-fluoropicolinamide hydrochloride] |
| 3.0 | Cl.NC1CCCC(Oc2ncncc2NC(=O)c2ccc(F)c(-c3c(F)cccc3F)n2)C1 (centres unmarked) [Example 11, N-(4-((3-aminocyclohexyl)oxy)pyrimidin-5-yl)-6-(2,6-difluorophenyl)-5-fluoropicolinamide hydrochloride] |
| 0.7 | Cl.NCCCOc1ncncc1NC(=O)c1ccc(F)c(-c2c(F)cccc2F)n1 [Example 12, N-(4-(3-aminopropoxy)pyrimidin-5-yl)-6-(2,6-difluorophenyl)-5-fluoropicolinamide hydrochloride] |
| 0.5 | CNCCCOc1ncncc1NC(=O)c1ccc(F)c(-c2c(F)cccc2F)n1.Cl [Example 13, 6-(2,6-difluorophenyl)-5-fluoro-N-(4-(3-(methylamino)propoxy)pyrimidin-5-yl)picolinamide hydrochloride] |
| 0.2 | CN(C)CCCOc1ncncc1NC(=O)c1ccc(F)c(-c2c(F)cccc2F)n1.Cl [Example 14, 6-(2,6-difluorophenyl)-N-(4-(3-(dimethylamino)propoxy)pyrimidin-5-yl)-5-fluoropicolinamide hydrochloride] |
| 0.2 | O=C(Nc1cncnc1OCCCO)c1ccc(F)c(-c2c(F)cccc2F)n1 [Example 17, 6-(2,6-difluorophenyl)-5-fluoro-N-(4-(3-hydroxypropoxy)pyrimidin-5-yl)picolinamide] |
| 0.1 | CC(C)(O)CCCOc1ncncc1NC(=O)c1ccc(F)c(-c2c(F)cccc2F)n1 [Example 20, 6-(2,6-difluorophenyl)-5-fluoro-N-(4-((4-hydroxy-4-methylpentyl)oxy)pyrimidin-5-yl)picolinamide] |
| 0.1 | O=C(Nc1cncnc1OCC1CCOCC1)c1ccc(F)c(-c2c(F)cccc2F)n1 [Example 22, 6-(2,6-difluorophenyl)-5-fluoro-N-(4-((tetrahydro-2H-pyran-4-yl)methoxy)pyrimidin-5-yl)picolinamide] |
| 2.2 | Cl.Nc1cc(F)c(-c2c(F)cccc2F)nc1C(=O)Nc1cncnc1OCC1CCNCC1 [Example 23, 3-amino-6-(2,6-difluorophenyl)-5-fluoro-N-(4-(piperidin-4-ylmethoxy)pyrimidin-5-yl)picolinamide hydrochloride] |
| 1.9 | Cl.Nc1cc(F)c(-c2c(F)cccc2F)nc1C(=O)Nc1cncnc1OC1CCNC1 (centres unmarked) [Example 24, 3-amino-6-(2,6-difluorophenyl)-5-fluoro-N-(4-(pyrrolidin-3-yloxy)pyrimidin-5-yl)picolinamide hydrochloride] |
| 3.1 | Cl.Nc1cc(F)c(-c2c(F)cccc2F)nc1C(=O)Nc1cncnc1OC1CCNCC1 [Example 25, 3-amino-6-(2,6-difluorophenyl)-5-fluoro-N-(4-(piperidin-4-yloxy)pyrimidin-5-yl)picolinamide hydrochloride] |
| 4.0 | Cl.Nc1cc(F)c(-c2c(F)cccc2F)nc1C(=O)Nc1cncnc1OC1CCCNCC1 (centres unmarked) [Example 26, 3-amino-N-(4-(azepan-4-yloxy)pyrimidin-5-yl)-6-(2,6-difluorophenyl)-5-fluoropicolinamide hydrochloride] |
| 4.4 | Cl.Nc1cc(F)c(-c2c(F)cccc2F)nc1C(=O)Nc1cncnc1OC1CCC(N)CC1 (centres unmarked) [Example 27, 3-amino-N-(4-(((1r,4r)-4-aminocyclohexyl)oxy)pyrimidin-5-yl)-6-(2,6-difluorophenyl)-5-fluoropicolinamide hydrochloride] |
| 2.3 | Cl.Nc1cc(F)c(-c2c(F)cccc2F)nc1C(=O)Nc1cncnc1OCC1CCNC1 (centres unmarked) [Example 28] |
| 1.8 | NCC(CCl)Oc1ncncc1NC(=O)c1ccc(F)c(-c2c(F)cccc2F)n1 (centres unmarked) [Example 29, N-(4-((1-amino-3-chloropropan-2-yl)oxy)pyrimidin-5-yl)-6-(2,6-difluorophenyl)-5-fluoropicolinamide hydrochloride] |
| 1.5 | Cl.NCC(CCl)COc1ncncc1NC(=O)c1ccc(F)c(-c2c(F)cccc2F)n1 (centres unmarked) [Example 30, N-(4-(3-amino-2-(chloromethyl)propoxy)pyrimidin-5-yl)-6-(2,6-difluorophenyl)-5-fluoropicolinamide hydrochloride] |
| 1.0 | Cl.Nc1cc(F)c(-c2c(F)cccc2F)nc1C(=O)Nc1cncnc1OC1CNC1 [Example 31, 3-amino-N-(4-(azetidin-3-yloxy)pyrimidin-5-yl)-6-(2,6-difluorophenyl)-5-fluoropicolinamide hydrochloride] |
| 1.0 | Cl.Nc1cc(F)c(-c2c(F)cccc2F)nc1C(=O)Nc1cncnc1OCC1CNC1 [Example 32, 3-amino-N-(4-(azetidin-3-ylmethoxy)pyrimidin-5-yl)-6-(2,6-difluorophenyl)-5-fluoropicolinamide hydrochloride] |

| Structure (SMILES) | CFTR Activity |
| --- | --- |
| Cl.NCCCCOc1ncncc1NC(=O)c1ccc(F)c(-c2c(F)cccc2F)n1 [Example 15, N-(4-(4-aminobutoxy)pyrimidin-5-yl)-6-(2,6-difluorophenyl)-5-fluoropicolinamide hydrochloride] | 0.5 |
| CNCCCCOc1ncncc1NC(=O)c1ccc(F)c(-c2c(F)cccc2F)n1.Cl [Example 16, 6-(2,6-difluorophenyl)-5-fluoro-N-(4-(4-(methylamino)butoxy)pyrimidin-5-yl)picolinamide hydrochloride] | 0.5 |
| CC(O)CCOc1ncncc1NC(=O)c1ccc(F)c(-c2c(F)cccc2F)n1 (centres unmarked) [Example 18, 6-(2,6-difluorophenyl)-5-fluoro-N-(4-(3-hydroxybutoxy)pyrimidin-5-yl)picolinamide] | 0.2 |
| O=C(Nc1cncnc1OCCCCO)c1ccc(F)c(-c2c(F)cccc2F)n1 [Example 19, 6-(2,6-difluorophenyl)-5-fluoro-N-(4-(4-hydroxybutoxy)pyrimidin-5-yl)picolinamide] | 0.3 |
| O=C(Nc1cncnc1OCCC(O)CO)c1ccc(F)c(-c2c(F)cccc2F)n1 (centres unmarked) [Example 21, 6-(2,6-difluorophenyl)-N-(4-(3,4-dihydroxybutoxy)pyrimidin-5-yl)-5-fluoropicolinamide] | 0.05 |
